The test system of experiment [1] is male rats. The experiment can be described thus: Inflammatory Bowel Disease model: rat DNBS distal colitis. The class given is in vivo. As to conditions: 100 mg/kg orally, 7 doses. As for the experimental part: Groups of three male rats weighing 150+/−10 g and fasted for 24 hours were used. Distal colitis was induced by intracolonic instillation of 0.5 ml/rat DNBS (2,4-dinitrobenzene sulfonic acid, 60 mg/ml in ethanol 30%) after which air (2 ml) was gently injected through the cannula to ensure that the solution remains in the colon. A test compound was administered orally 24 and 2 hours before DNBS-instillation and then daily for 5 days in a total of 7 doses. The animals were sacrificed 24 hours after the final dose of test compound administration and each colon was removed and weighed.

Experiment [2] has as its system Vascular Cell Adhesion Molecule (VCAM) expression in primary human umbilical vein endothelial cells. The experiment can be described thus: VCAM High Throughput Screen (TNF-α driven VCAM expression). As to conditions: HUVEC, TNF 1.0 ng/ml. The class given is cell-based. The source says:
Description of Table V: The results shown in Table V were obtained using the TNF-α assays performed as described in the protocols entitled “Method for TNF High Throughput Screen” and “Method for VCAM High Throughput Screen”, which are detailed below. These assays measure a cellular response to TNF-α stimulation, and the data published in the table are expressed as percentage inhibitions. Percentage inhibition is computed on a scale of 0 to 100% where 0 percent inhibition means the compound has no effect in the assay (the response is indistinguishable from TNF-α treatment alone), and 100% inhibition means that when the compound is present at the stated concentration, the response in the assay is the same as if TNF-α were not added. These two assays measure two different outcomes of TNF-α treatment, cell death and Vascular Cell Adhesion Molecule (VCAM) expression, and capture two of TNF-α's many biological effects. TNF-α induced apoptosis is a mechanism by which TNF-α production during immune/inflammatory responses can lead to direct cellular and tissue damage. TNF-α VCAM expression in endothelial cells is a response that allows leukocytes to leave the blood and enter a site of immune/inflammatory response. Both of these activities could lead to pathology in immune/inflammatory diseases. In the first column of the table, the percentage inhibition of the TNF-α driven apoptosis assay when the compounds are tested at 1 μM concentration is presented. The second column in the table lists the IC50 for the compound, a standard measure using a dilution series in the assay, and fitting a sigmoidal curve to the resulting dose-response curve. The IC50 is the concentration (derived analytically from the sigmoidal function) at which the compound would inhibit 50% of the response in the assay. The third and fourth column list the corresponding analysis for the TNF-α driven VCAM assay. In Table VI, data corresponding to the data in column 1 of Table V is shown, with human cells replacing the mouse cells used in the high throughput screen. […] As a consequence, the compounds will have use in treating more than one TNF-α mediated condition, and may be selected according to the manner in which the condition manifests. This corresponds to the use of these compounds in the treatment of human disease.
• 1. Plate 4×10^4 L929 cells in 100 μl of complete EMEM in Costar 96 well plates in PM. • 2. The next day, pretreat with compound, inhibitor and control vehicle for 2 hours. • 3. After 2 hours pretreatment, add 10 μl 5 ng/ml human TNF-α and actinomycin D (40 μg/ml final concentration). • 4. Incubate overnight. • 5. In AM, remove supernatant. • 6. Wash on a plate washer (0.9% NaCl). • 7. […] Shake plates on orbital shaker and read at 595 nm on plate reader. […]

Experiment [3] relates to L929 cells. The experiment can be described thus: TNF High Throughput Screen (TNF-α driven apoptosis assay). The class given is cell-based, mouse. As to conditions: Mus musculus, human TNF-α + actinomycin D, read-out: TNFα IC50. In short, it runs like this:
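Mouse L929 cells were pretreated with compound for 2 hours, then given human TNF-α plus actinomycin D (40 μg/ml final) overnight. Surviving cells were stained with crystal violet, solubilised in methanol and read at 595 nm. Values are % inhibition at 1 μM (0 = TNF alone, 100 = no TNF) or IC50 from sigmoidal fits of dilution series.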

As to `N#Cc1cccc(C(C(=O)NCC(c2ccccc2)c2ccccc2)N(CCc2c[nH]cn2)C(=O)c2ccccc2C(=O)c2ccccc2)c1` (stereo not drawn) [Compound 44], the “Inflammatory Bowel Disease: Rat DNBS model % inhibition of colonic weight gain” value in experiment [1] is given as 44 +/− 8 @ 100 mg/kg %. Also, the results for the IC50 in experiment [2] and in experiment [3] were 24.4 µM and 410 nM, respectively.

(Values after US9579325B2, “Modulators of TNF-α signaling” (Genzyme Corporation, priority 2000, dated 2017).)
